{
  "source": "patent US20250304916A1",
  "about": "“METHODS AND COMPOSITIONS FOR GENERATING VASCULAR LEPTOMENINGEAL CELLS” (Trailhead Biosystems Inc., priority 2024, published 2025)",
  "format_in_all_cases": "cell-based, human",
  "key": {"[1]": {"tested_on": "OLIG1 and NKX2-2 expression", "assay": "HD-DoE 12-factor modeling experiment (stage 3), models optimized for maximal expression of OLIG1 and NKX2-2 simultaneously", "settings": "FIG. 5; for factor contribution, positive effect on upregulation of OLIG1 and NKX2-2: models optimized for OLIG1 (192) and NKX2-2 (486) simultaneously", "description": "(§1) To engineer the recipe of stage 3 of differentiation, cells were first cultured in stage 1 and stage 2 media (described in detail in US Publications 2022/0315891 and 2024/0043798). Then, 48 or 96 different combinations of effectors generated using HD-DoE compression through D-optimality were robotically prepared. The effector combinations were prepared in a basal media and were subsequently added to the cells, which were then allowed to differentiate. 3 days later RNA extraction was performed, and gene expression was obtained using quantitative PCR analysis. The data was normalized and modeled using partial least squares regression analysis to the effector design, resulting in the generation of gene-specific models, which after model tuning for maximal predictive power, provided explanation of the effectors ability to control the expression of individual genes, combinatorically, and individually. Solutions within the tested space were then further explored to address desirability.\nAnother 12-factor modeling experiment was performed to study the effect of additional factors on expression level of target genes at stage 3. In this experiment, Activin A, Linoleic acid (a polyunsaturated fatty acid), DBZ (GSI-XX) (a NOTCH pathway inhibitor), ZM336372 (a c-Raf inhibitor), AZD3147 (a mTOR pathway inhibitor), PDGF-AA (a PDGF pathway agonist) and MK2206 (an Akt pathway inhibitor), along with AGN193109, TTNPB, FGF2, IGF-1, and MHY1485, were tested. According to literature, proteins such as FGF-2, IGF-1, and PDGF-AA play an important role in oligodendrocyte differentiation (Goldman and Kuypers (2015) Development 142:3983-95). Models were optimized for maximal expression of OLIG1 with expression level of 192 and NKX2-2 with expression level of 486 simultaneously. […] MK2206 with factor contribution of 19 had the highest negative impact on expression of these genes. […] To confirm the impact of identified factors on a bigger scale, the expression profile of a larger group of genes defining late oligodendrocyte progenitor population (Perlman et al. (2020) Glia 68:1291-1303; Goldman and Kuypers (2015) Development 142:3983-95; van Tilborg et al. (2018) Glia 66:221-238) was investigated. At maximal expression of OLIG1 and NKX2-2, other desired genes such as CNP, IGFBP2, MYC, and MYT-1 were highly expressed, while neuronal genes, NEUROD1, NEUROG1, and NEUROG2 had expression levels less than 30."}, "[2]": {"tested_on": "MBP expression", "assay": "HD-DoE 8-factor model (stage 4), optimized for maximum expression of MBP", "settings": "model optimized for MBP at 274; FIG. 6"}, "[3]": {"tested_on": "PDGFRA expression", "assay": "HD-DoE 8-factor modeling experiment (stage 3), model optimized for maximum expression of PDGFRA", "settings": "FIG. 2; for factor contribution, positive impact on PDGFRA expression: model optimized for maximum expression of PDGFRA at 853; for factor contribution, negative impact on PDGFRA expression: model optimized for maximum expression of PDGFRA", "description": "as §1\n(§2) In one 8-factor modeling experiment, the individual and combinatorial effect of CHIR99021 (a WNT pathway agonist), AGN193109 (an RA pathway antagonist), FGF-2 (FGFR pathway agonist), Purmorphamine (a SHH pathway agonist), TTNPB (an RA pathway agonist), IGF-1 (an IGF-1 pathway agonist), MHY1485 (a mTOR pathway agonist), and Sc79 (an Akt pathway agonist), on further differentiation of cells were tested. […] Sc79 had the highest negative impact on its expression with factor contribution of 30.\nThe highest positive contribution was from Purmorphamine with factor contribution of 21 and IGF-1 with factor contribution of 11. MHY1485 and AGN193109 had the highest negative impact with factor contribution of 21 and 23, respectively (FIG. 2). […] When the model was optimized, expression levels were observed of NKX2-2 at 1200, OLIG1 at 550, OLIG2 at 1000, PDGFRA at 500, SOX8 at 70, and SOX10 at 35 (FIG. 4)."}, "[4]": {"tested_on": "SOX10 expression", "assay": "HD-DoE 8-factor modeling experiment (stage 3), model optimized for maximum expression of SOX10, qPCR gene expression", "settings": "for effect on expression of SOX10 (dynamic profile): model optimized for maximal SOX10 expression, FIG. 4; for factor contribution, positive regulatory effect on SOX10 expression: model optimized for maximum expression of SOX10 at 40", "description": "as §1, §2"}, "[5]": {"tested_on": "SOX8 expression", "assay": "HD-DoE 8-factor modeling experiment (stage 3), model optimized for maximal expression of SOX8", "settings": "FIG. 3", "description": "as §1\nIn one 8-factor modeling experiment, the individual and combinatorial effect of CHIR99021 (a WNT pathway agonist), AGN193109 (an RA pathway antagonist), FGF-2 (FGFR pathway agonist), Purmorphamine (a SHH pathway agonist), TTNPB (an RA pathway agonist), IGF-1 (an IGF-1 pathway agonist), MHY1485 (a mTOR pathway agonist), and Sc79 (an Akt pathway agonist), on further differentiation of cells were tested. […]"}},
  "note": "“And” between values parts separate entries of the source, which are not always exact repeats. Equal values may be shown once.",
  "data": [
    {"compound": "NC1(c2ccc(-c3nc4ccn5c(=O)[nH]nc5c4cc3-c3ccccc3)cc2)CCC1", "note": "[MK2206]", "values": [
      {"measurement": "factor contribution, negative impact on expression of OLIG1 and NKX2-2", "setting": "[1]; models optimized for OLIG1 and NKX2-2 simultaneously", "value": 19}
    ]},
    {"compound": "Dibenzazepine [DBZ]", "values": [
      {"measurement": "factor contribution, positive impact on MBP expression", "setting": "[2]", "value": 18.1},
      {"measurement": "factor contribution, positive effect on upregulation of OLIG1 and NKX2-2", "setting": "[1]", "value": 13},
      {"measurement": "factor contribution, positive effect on upregulation of OLIG1 and NKX2-2", "setting": "[1]; listed as GSI-XX (DBZ)", "value": 13.2}
    ]},
    {"compound": "C/C(=C\\c1ccc(C(=O)O)cc1)c1ccc2c(c1)C(C)(C)CCC2(C)C", "note": "[TTNPB]", "values": [
      {"measurement": "factor contribution, positive impact on PDGFRA expression", "setting": "[3]", "value": 0.6},
      {"measurement": "effect on expression of SOX10 (dynamic profile)", "setting": "[4]", "value": "positive effect"},
      {"measurement": "factor contribution, positive regulatory effect on SOX10 expression", "setting": "[4]; FIG. 1", "value": 18}
    ]},
    {"compound": "IGF-1: insulin-like growth factor 1; an IGF-1 pathway agonist", "values": [
      {"measurement": "factor contribution, positive impact on PDGFRA expression", "setting": "[3]", "value": "11 and 11.22"},
      {"measurement": "expression level of SOX10 after addition of IGF-1 to the suggested recipe", "setting": "[4]; dynamic profile analysis, decreased from 40 without IGF-1", "value": 35},
      {"measurement": "factor contribution, positive effect on SOX8 expression", "setting": "[5]", "value": "16 and 15.6"}
    ]},
    {"compound": "CCCCC/C=C\\C/C=C\\CCCCCCCC(=O)O", "note": "[linoleic acid]", "values": [
      {"measurement": "factor contribution, positive effect on upregulation of OLIG1 and NKX2-2", "setting": "[1]", "value": 12}
    ]},
    {"compound": "N[C@@H](Cc1cc(I)c(Oc2ccc(O)c(I)c2)c(I)c1)C(=O)O", "note": "[T3]", "values": [
      {"measurement": "factor contribution, positive impact on MBP expression", "setting": "[2]", "value": 18.1}
    ]},
    {"compound": "PDGF-AA: a PDGF pathway agonist; ligand of a PDGFR", "values": [
      {"measurement": "factor contribution, positive effect on upregulation of OLIG1 and NKX2-2", "setting": "[1]", "value": 21}
    ]},
    {"compound": "FGF-2: FGFR pathway agonist; naturally occurring ligand", "values": [
      {"measurement": "effect on expression of SOX10 (dynamic profile)", "setting": "[4]", "value": "positive effect"},
      {"measurement": "factor contribution, positive regulatory effect on SOX10 expression", "setting": "[4]; FIG. 1", "value": 15}
    ]},
    {"compound": "c1ccc2c(Oc3nc(Nc4ccc(N5CCOCC5)cc4)c4ncn(C5CCCCC5)c4n3)cccc2c1", "note": "[Purmorphamine]", "values": [
      {"measurement": "factor contribution, positive impact on PDGFRA expression", "setting": "[3]", "value": "21 and 20.6"}
    ]},
    {"compound": "CCOC(=O)C1=C(N)Oc2ccc(Cl)cc2C1C(C#N)C(=O)OCC", "note": "(centres unmarked) [Sc79]", "values": [
      {"measurement": "factor contribution, negative impact on SOX10 expression", "setting": "[4]; model optimized for maximum expression of SOX10, FIG. 1", "value": 30}
    ]},
    {"compound": "Cc1c[nH]c(-c2cnc(NCCNc3ccc(C#N)cn3)nc2-c2ccc(Cl)cc2Cl)n1", "note": "[CHIR99021]", "values": [
      {"measurement": "factor contribution, positive impact on PDGFRA expression", "setting": "[3]", "value": 8},
      {"measurement": "effect on expression of SOX10 (dynamic profile)", "setting": "[4]", "value": "positive effect"},
      {"measurement": "factor contribution, positive regulatory effect on SOX10 expression", "setting": "[4]; FIG. 1", "value": 8}
    ]},
    {"compound": "O=[N+]([O-])c1ccc(Nc2nc(N3CCOCC3)nc(N3CCOCC3)n2)cc1", "note": "[MHY1485]", "values": [
      {"measurement": "factor contribution, negative impact on PDGFRA expression", "setting": "[3]", "value": 21},
      {"measurement": "factor contribution, positive effect on SOX8 expression", "setting": "[5]", "value": "13 and 13.2"}
    ]},
    {"compound": "Cc1ccc(C2=CCC(C)(C)c3ccc(C#Cc4ccc(C(=O)O)cc4)cc32)cc1", "note": "[AGN193109]", "values": [
      {"measurement": "factor contribution, negative impact on PDGFRA expression", "setting": "[3]", "value": 23}
    ]}
  ]
}
